We go through five substances from patent US11141464B2, “GLP-1 polypeptide having GLP-1 receptor agonist activity and use thereof” (Liu Jianning, priority 2018, dated 2021).

The target of series [1] is dipeptidyl peptidase IV (DPP-IV) (Homo sapiens, UniProt P27487). The note with it: variants with the 8-position alanine replaced, compared with GLP-1 or its fragment; cited from earlier work.
Series [2] has as its system patients with type 2 diabetes. The note with it: after 6 weeks of GLP-1 treatment; cited from earlier work.
Series [3] concerns STZ rats. The series can be described thus: Efficacy study by subcutaneous administration in the experimental animal model of type 2 diabetes (STZ rats), blood glucose. It is filed as in vivo, Male Wistar rats. The note with it: for Blood glucose concentration at 0 hour (mM, mean ± sem): 0 hour (start of experiment, time of injection). On the procedure: 1) The Experimental Animal Model of Type 2 Diabetes Male Wistar rats of approximately 200 grams were fasted overnight with free access to water. The rats were administered a single dose of streptozotocin (STZ) by intraperitoneal injection (ip) in an amount of 45 mg/Kg. Then, the rats were normally fed and tested for fasting blood glucose. […] 2) Experimental Method Forty-eight rats were randomly divided into 6 groups, with each of 8 rats. […] At 0 hour, the STZ rats were injected subcutaneously with different doses of drugs for test. At 3, 6, and 9 hours, blood samples were taken from the vein of the rats' tail. The blood samples were tested to provide the blood glucose concentrations of the rats.

Where no end group is shown, it is not given here.

dipeptidyl peptidase IV (DPP-IV), sequence (P27487 whole entry, species assumed, the tested form may be a part): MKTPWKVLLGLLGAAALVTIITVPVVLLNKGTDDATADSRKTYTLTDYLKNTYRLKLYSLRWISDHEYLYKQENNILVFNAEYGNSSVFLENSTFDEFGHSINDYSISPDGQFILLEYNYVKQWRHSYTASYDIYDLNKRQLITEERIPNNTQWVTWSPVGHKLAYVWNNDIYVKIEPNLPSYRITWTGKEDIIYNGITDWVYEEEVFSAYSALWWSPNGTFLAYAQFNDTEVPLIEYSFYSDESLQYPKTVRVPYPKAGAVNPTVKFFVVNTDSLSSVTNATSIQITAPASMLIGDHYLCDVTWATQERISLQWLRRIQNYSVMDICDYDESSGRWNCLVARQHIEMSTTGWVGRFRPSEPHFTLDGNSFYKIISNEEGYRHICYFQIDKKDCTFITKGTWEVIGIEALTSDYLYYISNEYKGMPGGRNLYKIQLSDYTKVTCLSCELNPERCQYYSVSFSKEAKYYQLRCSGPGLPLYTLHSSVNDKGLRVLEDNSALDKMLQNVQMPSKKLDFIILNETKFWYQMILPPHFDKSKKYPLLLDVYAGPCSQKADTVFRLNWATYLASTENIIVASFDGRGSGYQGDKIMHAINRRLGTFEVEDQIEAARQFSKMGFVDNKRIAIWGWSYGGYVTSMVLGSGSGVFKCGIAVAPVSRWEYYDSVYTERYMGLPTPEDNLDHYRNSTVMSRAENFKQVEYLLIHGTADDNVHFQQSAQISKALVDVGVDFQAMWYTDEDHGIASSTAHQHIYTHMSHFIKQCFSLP

For “Gly^8-GLP-1 (HDEFERHGEGTFTSDVSSYLEGQAAKEFIAWLVKGRG; Glucagon-like peptide 1; UniProt P01275 92-128, looked up, variant A8G) [variant obtained by replacing the 8-position alanine of GLP-1 or a fragment thereof with glycine]”, the “resistance to DPP-IV mediated degradation” value (shortened to “resistance”) in series [1] is listed as “increased resistance”.
Turning to “^1HDEFERHAEGTFTSDVSSYLEGQAAKEFIAWLVKGRG [GLP-1, Glucagon-like peptide-1, a polypeptide containing 37 amino acids]”, the average weight loss in series [2] was 1.9 kg.
For “Ser^8-GLP-1 (HDEFERHSEGTFTSDVSSYLEGQAAKEFIAWLVKGRG; Glucagon-like peptide 1; UniProt P01275 92-128, looked up, variant A8S) [variant obtained by replacing the 8-position alanine of GLP-1 or a fragment thereof with serine]”, the “resistance” value in series [1] is on record as “increased resistance”.
With “Thr^8-GLP-1 (HDEFERHTEGTFTSDVSSYLEGQAAKEFIAWLVKGRG; Glucagon-like peptide 1; UniProt P01275 92-128, looked up, variant A8T) [variant obtained by replacing the 8-position alanine of GLP-1 or a fragment thereof with threonine]”, the “resistance” value in series [1] is “increased resistance”.
Regarding “His-Gly-Glu-Gly-Thr-Phe-Pro-Ser-Asp-Val-Ser-Ser-Tyr-Leu-Glu-Gly-Gln-Ala-Ala-Lys-Glu-Phe-Ile-Ala-Trp-Leu-Val-Lys-Gly-Arg-NH2 (HGEGTFPSDVSSYLEGQAAKEFIAWLVKGR-NH2) [Gly^8-Pro^13-GLP-1(7-36)NH2, GLP-1 polypeptide with T13P mutation]”, in series [3] (1 μg/kg subcutaneous), the “Blood glucose concentration at 0 hour (mM, mean ± sem)” value came out at 27.4 ± 0.8 mM; the “Blood glucose concentration at 3 hour (mM, mean ± sem)” value amounted to 23.4 ± 1.1 mM; the “Blood glucose concentration at 6 hour (mM, mean ± sem)” value came out at 19.5 ± 0.5 mM; the “Blood glucose concentration at 9 hour (mM, mean ± sem)” value was 16.3 ± 0.7 mM. Also, in series [3] (10 μg/kg subcutaneous), the “Blood glucose concentration at 0 hour (mM, mean ± sem)” value was 24.0 ± 1.1 mM; the “Blood glucose concentration at 3 hour (mM, mean ± sem)” value is reported as 18.5 ± 0.9 mM; the “Blood glucose concentration at 6 hour (mM, mean ± sem)” value is 14.5 ± 0.8 mM; the “Blood glucose concentration at 9 hour (mM, mean ± sem)” value is 10.5 ± 0.6 mM. Further, in series [3] (subcutaneous, comparison from the data of Table 1 (vs Liraglutide P<0.01)), the “blood-glucose lowering effect compared with reference drugs” value is recorded as “significantly better than that of Liraglutide”.
